Measurements reported in patent US11708318B2, “Polymorphic forms of RAD1901-2HCL” (Radius Pharmaceuticals, Inc., priority 2017, dated 2023).

Assay: Solubility assessment of Sample 1 (majorly Form 1) in 24 solvent systems
Assay type: physicochemical

Solubility in alcohols, esters, and hydrocarbon solvents (alcohols, esters, hydrocarbon solvents): low solubility
Solubility in t-butanol/water (1:1) (t-butanol/water (1:1)): high solubility
Structure (SMILES): CCNCCc1ccc(CN(CC)c2cc(OC)ccc2[C@@H]2CCc3cc(O)ccc3C2)cc1.Cl.Cl [Sample 1]
